The nature of series [1]: (§1) Pharmacokinetic parameters for Bicalutamide following single oral administration of Bicalutamide tablets to 30 healthy male subjects and 40 patients with prostrate cancer. Also noted: route oral. In kind it is ADME, organism-based. As to conditions: human, in vivo, dosed compound id 25, dosed compound name BICALUTAMIDE, gender male, regimen Single dose, tissue Plasma.
For series [2], the system named is Homo sapiens. Described as §1. Also on record: route oral. As to conditions: in vivo, po, dosed compound id 25, dosed compound name BICALUTAMIDE, gender male, regimen Single dose, tissue Plasma. In kind it is ADME, organism-based.

We go through 1 compound from ChEMBL document CHEMBL3832048, “DailyMed|setid=020d34eb-9560-4218-9d87-dfdeff705c3a | BICALUTAMIDE - bicalutamide tablet, film coated|Physicians Total Care, Inc”.

A word on the Cmax: it is the maximum level reached in the sampled fluid or tissue. Broadly, the CL/F is clearance divided by bioavailability, as obtained after extravascular dosing. For orientation: Tmax means the time at which the peak concentration occurs. In general, half-life refers to the time needed for the level to fall by half in the phase considered. A low value points to fast loss.

In turn, `CC(O)(CS(=O)(=O)c1ccc(F)cc1)C(=O)Nc1ccc(C#N)c(C(F)(F)F)c1` (stereo not given) [BICALUTAMIDE] yielded a Cmax in series [1] (po) of 768 ng/mL. In series [1] (route oral), the CL/F is 5.33 mL/min, the Tmax came out at 31.3 h and the half-life was 139 h. Also, the Css in series [2] was 8939 ng/mL.
